Legend:
Assay type in all cases: in vivo
[1] = test system: Euphorbia heterophylla (EUPHO); experiment: herbicidal action with/without simulated rainfall after treatment, Euphorbia heterophylla; parameters: key: % damage vs untreated control: 0 = no damage, 100 = complete destruction; details: 180 g/ha lactofen, 1080 g/ha glyphosate; for herbicidal action against Euphorbia heterophylla (EUPHO): control without simulated rainfall, Example 13.1
Method: (§1) The enhancement of the rainfastness of glyphosate was determined via the herbicidal activity of the mixture comprising glyphosate and the respective rainfastness enhancing herbicidal component B as well as of the single herbicidal components in relation to simulated rainfall at different time intervals.
(§2) The evaluation of the damage caused by the method and the compositions the according to the present invention and the single herbicidal components was carried out using a scale from 0 to 100%, compared to the untreated control plots. Here, 0 means no damage and 100 means complete destruction of the plants of a respective weed or crop species.
(§3) The application was performed with a fixed spayer system with air pressurization and with a tank spray volume of two liters. The speed of the spray device over the plants was adjusted for a spray volume of 200 I/ha. The spray device was a spray barr with four nozzles from the type Teejet XR 11002VS with a space of 50 cm between each nozzle.
(§4) The application was performed at a weed stage of 6 to 8 leaves. After the application of the formulated herbicides the leaves were washed through rain of 20 mm using a fixed rain simulator system at following time interval: 15 min, 30 min, 1, 2, 3, 4 and 6 hours after treatment.

[2] = test system: Echinochloa colonum (ECHCO); experiment: herbicidal action with/without simulated rainfall after treatment, Echinochloa colonum; parameters: key: % damage vs untreated control; 0 = no damage, 100 = complete destruction; details: 180 g/ha lactofen, 1080 g/ha glyphosate; for herbicidal action against Echinochloa colonum (ECHCO): control without simulated rainfall, Example 12.1
Method: as §1, §2, §3, §4

[3] = test system: Brachiaria decumbens (BRADE); experiment: herbicidal action with/without simulated rainfall after treatment, Brachiaria decumbens; parameters: key: % damage vs untreated control; 0 = no damage, 100 = complete destruction; details: 180 g/ha lactofen, 1080 g/ha glyphosate; for herbicidal action against Brachiaria decumbens (BRADE): control without simulated rainfall, Example 14.1; for herbicidal action aaainst BRADE: simulated rainfall 30 min after treatment, Example 14.2; for herbicidal action against BRADE: simulated rainfall 6 hours after treatment, Example 14.3
Method: as §1, §2, §3, §4

In the case of CCOC(=O)C(C)OC(=O)c1cc(Oc2ccc(C(F)(F)F)cc2Cl)ccc1[N+](=O)[O-] (stereo not drawn) [Lactofen, lactofen], the “herbicidal action against Euphorbia heterophylla (EUPHO)” value (“herbicidal action … (EUPHO)” for short) ([1]; 1 DAA) is reported as 9.66, the “herbicidal action … (EUPHO)” value ([1]; 2 DAA) is reported as 19 and the “herbicidal action … (EUPHO)” value ([1]; 3 DAA) is reported as 37. For the same molecule, the “herbicidal action … (EUPHO)” value ([1]; 7 DAA) was 47, the “herbicidal action against EUPHO” value ([1]; simulated rainfall 15 min after treatment, 1 DAA, Example 13.2) was 20.66 and the “herbicidal action against EUPHO” value ([1]; simulated rainfall 15 min after treatment, 2 DAA, Example 13.2) was 39. The “herbicidal action against EUPHO” value ([1]; simulated rainfall 15 min after treatment, 3 DAA, Example 13.2) was 40, the “herbicidal action against EUPHO” value ([1]; simulated rainfall 15 min after treatment, 7 DAA, Example 13.2) was 74.33 and the “herbicidal action against EUPHO” value ([1]; simulated rainfall 2 hours after treatment, 1 DAA, Example 13.3) was 18. The “herbicidal action against EUPHO” value ([1]; simulated rainfall 2 hours after treatment, 2 DAA, Example 13.3) was 42, the “herbicidal action against EUPHO” value ([1]; simulated rainfall 2 hours after treatment, 3 DAA, Example 13.3) was 39 and the “herbicidal action against EUPHO” value ([1]; simulated rainfall 2 hours after treatment, 7 DAA, Example 13.3) was 73.33. The “herbicidal action against Echinochloa colonum (ECHCO)” value (“herbicidal action … (ECHCO)” below) ([2]; 2 DAA) was 61.66, the “herbicidal action … (ECHCO)” value ([2]; 3 DAA) was 76.66 and the “herbicidal action … (ECHCO)” value ([2]; 7 DAA) was 75.33. The “herbicidal action against ECHCO” value ([2]; simulated rainfall 15 min after treatment, 2 DAA, Example 12.2) was 46.66, the “herbicidal action against ECHCO” value ([2]; simulated rainfall 15 min after treatment, 3 DAA, Example 12.2) was 57.66 and the “herbicidal action against ECHCO” value ([2]; simulated rainfall 15 min after treatment, 7 DAA, Example 12.2) was 46.33. For the same molecule, the “herbicidal action against ECHCO” value ([2]; simulated rainfall 30 min after treatment, 2 DAA, Example 12.3) was 53, the “herbicidal action against ECHCO” value ([2]; simulated rainfall 30 min after treatment, 3 DAA, Example 12.3) was 60 and the “herbicidal action against ECHCO” value ([2]; simulated rainfall 30 min after treatment, 7 DAA, Example 12.3) was 46. The “herbicidal action against ECHCO” value ([2]; simulated rainfall 2 hours after treatment, 2 DAA, Example 12.4) was 48.33, the “herbicidal action against ECHCO” value ([2]; simulated rainfall 2 hours after treatment, 3 DAA, Example 12.4) was 63.33 and the “herbicidal action against ECHCO” value ([2]; simulated rainfall 2 hours after treatment, 7 DAA, Example 12.4) was 39.33. For the same molecule, the “herbicidal action against Brachiaria decumbens (BRADE)” value (shortened to “herbicidal action … (BRADE)”) ([3]; 1 DAA) was 5, the “herbicidal action … (BRADE)” value ([3]; 2 DAA) was 9 and the “herbicidal action … (BRADE)” value ([3]; 3 DAA) was 8.66. For the same molecule, the “herbicidal action … (BRADE)” value ([3]; 7 DAA) was 14, the “herbicidal action aaainst BRADE” value ([3]; 1 DAA) was 5 and the “herbicidal action aaainst BRADE” value ([3]; 2 DAA) was 18.33. The “herbicidal action aaainst BRADE” value ([3]; 3 DAA) was 24.66, the “herbicidal action aaainst BRADE” value ([3]; 7 DAA) was 26 and the “herbicidal action against BRADE” value ([3]; 1 DAA) was 9.66. The “herbicidal action against BRADE” value ([3]; 2 DAA) was 16, the “herbicidal action against BRADE” value ([3]; 3 DAA) was 22.66 and the “herbicidal action against BRADE” value ([3]; 7 DAA) was 25.33.

Source: US20110105326A1, “Method for Enhancing the Rainfastness of Glyphosate” (BASF SE, priority 2008, published 2011)
